Test results taken from patent publication US9920049B2 (priority 2014, dated 2018).

The compounds below were run on HBsAg (assay: HBsAg assay (CLIA of secreted HBsAg in HepG2.2.15 culture supernatant)). Details: Hepatitis B virus.
Assay type: cell-based, HBV
Description: HepG2.2.15 cells (Acs et al. Proc Natl Acad Sci USA, 84, (1987), 4641-4), a constitutively HBV-expressing cell line were cultured in DMEM+Glutamax-I medium (Invitrogen, Carlsbad, Calif., USA), supplemented with 10% fetal bovine serum (Invitrogen) and G418 (Invitrogen) at a final concentration of 200 mg/L and maintained in 5% CO2 at 37° C.
HepG2.2.15 cells were seeded in duplicate into white, 96-well plates at 1.5×10^4 cells/well. The cells were treated with a three-fold serial dilution series of the compounds in DMSO. The final DMSO concentration in all wells was 1% and DMSO was used as no drug control.
The HBsAg chemiluminescence immunoassay (CLIA) kit (Autobio Diagnostics Co., Zhengzhou, China, Catalog number: CL0310-2) was used to measure the levels of secreted HBV antigens semi-quantitatively. For the detection 50 μL/well culture supernatant was used and HBsAg was quantified using HBsAg chemiluminescence immunoassay (CLIA) kit (Autobio Diagnostics Co., Zhengzhou, China, Catalog number: CL0310-2), 50 μl of the supernatant was transferred to the CLIA assay plate and 50 μL of enzyme conjugate reagent was added into each well. The plates were sealed and gently agitated for 1 hour at room temperature. The supernatant-enzyme-mixture was discarded and wells were washed 6 times with 300 μL of PBS. The residual liquid was removed by plating the CLIA plate right side down on absorbent tissue paper. 25 μL of substrates A and B were added to each well. Luminance was measured using a luminometer (Mithras LB 940 Multimode Microplate Reader) after 10 minutes incubation. Dose-response curves were generated and the IC50 value was extrapolated by using the E-WorkBook Suite (ID Business Solutions Ltd., Guildford, UK).
The compounds of the present invention were tested for their capacity to inhibit HBsAg as described herein.

Compared with `CCC1Cc2cc(OCc3ccccc3)c(OC)cc2-c2cc(=O)c(C(=O)NS(C)(=O)=O)cn21` (centres unmarked) [Example 4, 9-benzyloxy-6-ethyl-10-methoxy-N-methylsulfonyl-2-oxo-6,7-dihydrobenzo[a]quinolizine-3-carboxamide], `CCC1Cc2cc(OCc3ccccc3)c(OC)cc2-c2cc(=O)c(C(=O)NO)cn21` (centres unmarked) [Example 10, 9-benzyloxy-6-ethyl-10-methoxy-2-oxo-6,7-dihydrobenzo[a]quinolizine-3-carbohydroxamic Acid] is 22-fold higher in IC50: 0.92 µM for the first, 20.3 µM for the second.

Going from `CCC1Cc2cc(OCCCOC)c(OC)cc2-c2cc(=O)c(C(=O)NCc3ccccc3)cn21` (centres unmarked) [Example 15, N-benzyl-6-ethyl-10-methoxy-9-(3-methoxypropoxy)-2-oxo-6,7-dihydrobenzo[a]quinolizine-3-carboxamide] to `CCCNC(=O)c1cn2c(cc1=O)-c1cc(OC)c(OCc3ccccc3)cc1CC2CC` (centres unmarked) [Example 5, 9-benzyloxy-6-ethyl-10-methoxy-2-oxo-N-propyl-6,7-dihydrobenzo[a]quinolizine-3-carboxamide], the IC50 falls from 26.7 µM to 5.6 µM (4.8-fold). The second is the more potent here.

Going from `CCC1Cc2cc(OCCCOC)c(OC)cc2-c2cc(=O)c(COC)cn21` (centres unmarked) [Example 29, 6-ethyl-10-methoxy-3-(methoxymethyl)-9-(3-methoxypropoxy)-6,7-dihydrobenzo[a]quinolizin-2-one] to `CCC1Cc2cc(OCCCOC)c(OC)cc2-c2cc(=O)c(CO)cn21` (centres unmarked) [Example 20, 6-ethyl-3-(hydroxymethyl)-10-methoxy-9-(3-methoxy-propoxy)-6,7-dihydrobenzo[a]quinolizin-2-one], the IC50 rises from 1.5 µM to 22.3 µM (15-fold).

Going from `CCOc1cc2c(cc1OC)-c1cc(=O)c(C(=O)NC(C)COC)cn1C(CC)C2` (centres unmarked) [Example 17, 9-ethoxy-6-ethyl-10-methoxy-N-(2-methoxy-1-methyl-ethyl)-2-oxo-6,7-dihydrobenzo[a]quinolizine-3-carboxamide] to `CCC1Cc2cc(OCC(C)C)c(OC)cc2-c2cc(=O)c(C(=O)NC(C)COC)cn21` (centres unmarked) [Example 18, 6-ethyl-9-isobutoxy-10-methoxy-N-(2-methoxy-1-methyl-ethyl)-2-oxo-6,7-dihydrobenzo[a]quinolizine-3-carboxamide], the IC50 rises from 2.2 µM to 4.9 µM (2.2-fold).

Going from `CCC1Cc2cc(OCCCOC)c(OC)cc2-c2cc(=O)c(C(=O)Nc3nnn[nH]3)cn21` (centres unmarked) [Example 14, 6-ethyl-10-methoxy-9-(3-methoxypropoxy)-2-oxo-N-(1H-tetrazol-5-yl)-6,7-dihydrobenzo[a]quinolizine-3-carboxamide] to `COCCCOc1cc2c(cc1OC)-c1cc(=O)c(C(=O)Nc3nnn[nH]3)cn1C(C(C)C)C2` (centres unmarked) [Example 36, 6-isopropyl-10-methoxy-9-(3-methoxypropoxy)-2-oxo-N-(1H-tetrazol-5-yl)-6,7-dihydrobenzo[a]quinolizine-3-carboxamide], the IC50 rises from 1.1 µM to 5.5 µM (5-fold). The first is the more potent here.

First: CCC1Cc2cc(OCc3ccccc3)c(OC)cc2-c2cc(=O)c(C(=O)NC(C)CN(C)C)cn21 (centres unmarked) [Example 11, 9-benzyloxy-N-[2-(dimethylamino)-1-methyl-ethyl]-6-ethyl-10-methoxy-2-oxo-6,7-dihydrobenzo[a]quinolizine-3-carboxamide]
Second: CCC(C)NC(=O)c1cn2c(cc1=O)-c1cc(OC)c(OCc3ccccc3)cc1CC2CC (centres unmarked) [Example 9, 9-benzyloxy-6-ethyl-10-methoxy-2-oxo-N-sec-butyl-6,7-dihydrobenzo[a]quinolizine-3-carboxamide]
The IC50 of the first is 4.4-fold higher: 23.9 µM for the first, 5.4 µM for the second.

First: CCC1Cc2cc(OCCCOC)c(OC)cc2-c2cc(=O)c(C(=O)NC(C)COC)cn21 (centres unmarked) [Example 16, 6-ethyl-10-methoxy-N-(2-methoxy-1-methyl-ethyl)-9-(3-methoxypropoxy)-2-oxo-6,7-dihydrobenzo[a]quinolizine-3-carboxamide]
Second: CCC1Cc2cc(OCC3CC3)c(OC)cc2-c2cc(=O)c(C(=O)NC(C)COC)cn21 (centres unmarked) [Example 19, 9-(cyclopropylmethoxy)-6-ethyl-10-methoxy-N-(2-methoxy-1-methyl-ethyl)-2-oxo-6,7-dihydrobenzo[a]quinolizine-3-carboxamide]
The IC50 of the first is 2.3-fold higher: 18.4 µM for the first, 8 µM for the second. The second is the more potent here.

Going from `CCC1Cc2cc(OCCCOC)c(OC)cc2-c2cc(=O)c(CN(C)CC(=O)O)cn21` (centres unmarked) [Example 30, 2-[[6-ethyl-10-methoxy-9-(3-methoxypropoxy)-2-oxo-6,7-dihydrobenzo[a]quinolizin-3-yl]methyl-methyl-amino]acetic Acid] to `CCC1Cc2cc(OCCCOC)c(OC)cc2-c2cc(=O)c(CN(C)C)cn21` (centres unmarked) [Example 28, 3-[(dimethylamino)methyl]-6-ethyl-10-methoxy-9-(3-methoxypropoxy)-6,7-dihydrobenzo[a]quinolizin-2-one], the IC50 falls from 16.9 µM to 3.7 µM (4.6-fold). The second is the more potent here.

`CCC1Cc2cc(OCCCOC)c(OC)cc2-c2cc(=O)c(CN3CCCCC3)cn21` (centres unmarked) [Example 24, 6-ethyl-10-methoxy-9-(3-methoxypropoxy)-3-(1-piperidylmethyl)-6,7-dihydrobenzo[a]quinolizin-2-one] and `CCC1Cc2cc(OCCCOC)c(OC)cc2-c2cc(=O)c(CN3CCCC3)cn21` (centres unmarked) [Example 25, 6-ethyl-10-methoxy-9-(3-methoxypropoxy)-3-(pyrrolidin-1-ylmethyl)-6,7-dihydrobenzo[a]quinolizin-2-one] are within 1.5-fold of each other in IC50: 12.6 µM for the first, 16.4 µM for the second.

Compared with `CCC1Cc2cc(OCc3ccccc3)c(OC)cc2-c2cc(=O)c(C(=O)NCCN(C)C)cn21` (centres unmarked) [Example 8], `CCC1Cc2cc(OCc3ccccc3)c(OC)cc2-c2cc(=O)c(C(=O)NC(C)CO)cn21` (centres unmarked) [Example 7, 9-benzyloxy-6-ethyl-N-(2-hydroxy-1-methyl-ethyl)-10-methoxy-2-oxo-6,7-dihydrobenzo[a]quinolizine-3-carboxamide] is 4.3-fold lower in IC50: 33.7 µM for the first, 7.8 µM for the second. The second is the more potent here.

`CCC1Cc2cc(OCCCOC)c(OC)cc2-c2cc(=O)c(CN3CCOCC3)cn21` (centres unmarked) [Example 26, 6-ethyl-10-methoxy-9-(3-methoxypropoxy)-3-(morpholinomethyl)-6,7-dihydrobenzo[a]quinolizin-2-one] and `CCC1Cc2cc(OCCCOC)c(OC)cc2-c2cc(=O)c(CN3CCOCC3C(=O)O)cn21` (centres unmarked) [Example 21, 4-[[6-ethyl-10-methoxy-9-(3-methoxypropoxy)-2-oxo-6,7-dihydrobenzo[a]quinolizin-3-yl]methyl]morpholine-3-carboxylic Acid] are within 1.5-fold of each other in IC50: 16.2 µM for the first, 19.4 µM for the second.

`CCC1Cc2cc(OCc3ccccc3)c(OC)cc2-c2cc(=O)c(C(=O)NCc3ccccc3)cn21` (centres unmarked) [Example 1, N-benzyl-9-benzyloxy-6-ethyl-10-methoxy-2-oxo-6,7-dihydrobenzo[a]quinolizine-3-carboxamide] and `CCC1Cc2cc(OCc3ccccc3)c(OC)cc2-c2cc(=O)c(C(=O)NC(C)COC)cn21` (centres unmarked) [Example 3, 9-benzyloxy-6-ethyl-10-methoxy-N-(2-methoxy-1-methyl-ethyl)-2-oxo-6,7-dihydrobenzo[a]quinolizine-3-carboxamide] are within 1.5-fold of each other in IC50: 26.2 µM for the first, 31 µM for the second.

First: CCC1Cc2cc(OCCCOC)c(OC)cc2-c2cc(=O)c(CNC)cn21 (centres unmarked) [Example 27, 6-ethyl-10-methoxy-9-(3-methoxypropoxy)-3-(methylaminomethyl)-6,7-dihydrobenzo[a]quinolizin-2-one]
Second: CCC1Cc2cc(OCCCOC)c(OC)cc2-c2cc(=O)c(CN3CCCCC3C(=O)O)cn21 (centres unmarked) [Example 22, 1-[[6-ethyl-10-methoxy-9-(3-methoxypropoxy)-2-oxo-6,7-dihydrobenzo[a]quinolizin-3-yl]methyl]piperidine-2-carboxylic Acid]
The IC50 of the first is 2.7-fold lower: 15.8 µM for the first, 43.2 µM for the second.

Compared with `COCCCOc1cc2c(cc1OC)-c1cc(=O)c(C(=O)Nc3nnn[nH]3)cn1C(C(C)(C)C)C2` (centres unmarked) [Example 32, 6-tert-butyl-10-methoxy-9-(3-methoxypropoxy)-2-oxo-N-(1H-tetrazol-5-yl)-6,7-dihydrobenzo[a]quinolizine-3-carboxamide], `COCCCOc1cc2c(cc1OC)-c1cc(=O)c(C(=O)Nc3nnn[nH]3)cn1C(C1CCC1)C2` (centres unmarked) [Example 33, 6-cyclobutyl-10-methoxy-9-(3-methoxypropoxy)-2-oxo-N-(1H-tetrazol-5-yl)-6,7-dihydrobenzo[a]quinolizine-3-carboxamide] is 2.6-fold higher in IC50: 0.38 µM for the first, 1 µM for the second. The first is the more potent here.

First: COc1cc2c(cc1OC)-c1cc(=O)c(C(=O)Nc3nnn[nH]3)cn1C(CC(F)(F)F)C2 (centres unmarked) [Example 35, 9,10-dimethoxy-2-oxo-N-(1H-tetrazol-5-yl)-6-(2,2,2-trifluoroethyl)-6,7-dihydrobenzo[a]quinolizine-3-carboxamide]
Second: CC[C@@H]1Cc2cc(OC)c(OC)cc2-c2cc(=O)c(C(=O)Nc3nnn[nH]3)cn21 [Example 31, (6R)-6-ethyl-9,10-dimethoxy-2-oxo-N-(1H-tetrazol-5-yl)-6,7-dihydrobenzo[a]quinolizine-3-carboxamide]
The IC50 of the first is 3.4-fold lower: 12.9 µM for the first, 44.1 µM for the second.

Compared with `COCCOc1cc(Cl)c2c(c1)CC(C(C)C)n1cc(C(=O)Nc3nnn[nH]3)c(=O)cc1-2` (centres unmarked) [Example 34, 11-chloro-6-isopropyl-9-(2-methoxyethoxy)-2-oxo-N-(1H-tetrazol-5-yl)-6,7-dihydrobenzo[a]quinolizine-3-carboxamide], `CCC1Cc2cc(OCCCOC)c(OC)cc2-c2cc(=O)c(C(=O)N3CCOC(C(=O)O)C3)cn21` (centres unmarked) [Example 13, 4-[6-ethyl-10-methoxy-9-(3-methoxypropoxy)-2-oxo-6,7-dihydrobenzo[a]quinolizine-3-carbonyl]morpholine-2-carboxylic Acid] is 2-fold higher in IC50: 18.3 µM for the first, 36.6 µM for the second. The first is the more potent here.
